Results: patent US20240299299A1, “COMPOSITIONS AND METHODS FOR INCREASING THE EFFICACY OF IMMUNOTHERAPIES AND VACCINES” (The Regents of the University of Michigan, priority 2021, published 2024)

What was measured:
[1] = Encapsulation of DHB-based prodrugs in lipid-based formulation; type: physicochemical; conditions: oleic acid, Tween 80, PBS emulsion
Experimental: The DHB-based prodrugs were synthesized by the Medicinal Chemistry Core in University of Michigan. To prepare the formulation, the prodrug #201 or #905 (4 mg) was added to the mixture of oleic acid (45 μL) and Tween 80 (25 μL) and incubated overnight to equilibrate and allow the prodrug to dissolve. Then an aqueous phase consisting of PBS buffer was added, and the formulation emulsified by ultrasonication with an ultrasonic processor.

[2] = tested on: immune checkpoint blockers (ICBs); conditions: reported in literature; cited from earlier work
OT-I CD8+ T cells [3] = experiment: In vitro central memory (Tcm) differentiation of OT-I CD8+ T cells activated with SIINFEKL peptide and IL-2 with metabolites; type: cell-based, mice; conditions: day 8; metabolite-supplemented medium (arginine 3 mM, 3-methylhistidine 3 mM, DHB 100 μM, sodium ferulate 100 μM)
Experimental: FIG. 2: a) OT-I CD8+ T cells were cultured with different metabolites in vitro as indicated, b,c) shown is the frequency of CD44^+CD62L^+ Tcm CD8+ T cells on day 8. d) OT-I CD8+ T cells were activated with α-CD3/α-CD28 antibodies in presence of metabolites as indicated and shown is the Tcm CD8+ T cells on day 7. Data represent the mean±s.e.m. (n=5).
(§1) Splenocytes from OT-I mice were obtained aseptically. The cells were cultured in 96-well plates (1×10^5 cells per well). For Tcm differentiation study, cells were activated with SIINFEKL peptide (4×10^−9M) in the presence of various metabolites (arginine: 3 mM; 3-methylhistidine: 3 mM; N-acetylneuraminate: 100 μM; disodium sebacate: 100 μM; DHB: 100 μM; pantothenate: 100 μM; γ-aminobutyric acid: 100 μM; glycerol: 100 μM; AICAR: 100 μM, sodium ferulate: 100 μM) for 3 days. Then cells were washed three times with T-cell medium and further cultured with IL-2 (10 ng ml^−1; PeproTech) in the presence of metabolites for 5 days. The cells were then washed twice and re-activated with SIINFEKL peptide (10 μM) for 2 h. The suspension cells were collected, blocked with CD16/32 antibody and stained with the fixable viability dye eFluor 450, FITC-CD44 rat anti-human/mouse and PE-CD62L monoclonal antibody. To test if the central memory CD8+ T cells differentiation is dependent on dendritic cells, CD8 T cells isolated from the spleen in OT-I mice were incubated in the 96-well plate, which was precoated with anti-hamster IgG antibody. […] (1 μg mL^−1) and IL-2 (100 U mL^−1) were added into each well in the presence of 3-methylhistidine (3 mM), DHB (100 μM), or sodium ferulate (100 μM) for 2 days. Then cells were washed for three times to remove α-CD3/α-CD28 antibodies and further incubated with metabolites and IL-2 (10 ng ml^−1) for 5 days. Thereafter, cells were collected for central memory CD8^+ T cells analysis. For CD8^+ T cells survival study, cells were activated with antigen peptide as above, following with thoroughly washing, and incubation in presence of IL-2 for 2 days. Metabolites were added during this incubation (arginine: 3 mM, 1 mM; 3-methylhistidine: 3 mM, 1 mM, 500 μM, 100 μM; N-acetylneuraminate: 100 μM; disodium sebacate: 100 μM; DHB: 100 μM, 50 μM, 20 μM; pantothenate: 100 μM; γ-aminobutyric acid: 100 μM; glycerol: 100 μM; AICAR: 100 μM). Then cells were further incubated in absence of both IL-2 and metabolites for 36 h to induce the apoptosis/dead. For Tcf1^+CD8^+ differentiation study, cells were activated with antigen peptide as above, followed by thoroughly washing, and incubation with metabolites in presence of IL-2 for 3 days. […] Tcf1^+CD8^+, CD44^+CD62L^+CD8^+ and survival (stained with Annexin V-APC and PI) T cells were detected via flow cytometry.

OT-I CD8+ T cells [4] = experiment: Tcf1+CD8+ differentiation of OT-I T cells with metabolites; type: cell-based, mice; conditions: day 6
Experimental: FIG. 3: a) OT-I CD8+ T cells were cultured with different metabolites in vitro as indicated, b,c) shown are the frequency of the Tcf1^+CD8+ T cells and the representative flow cytometry plots on day 6. Data represent the mean±s.e.m. (n=5).
as §1, with “days.” for “days. Metabolites were added during this incubation (arginine: 3 mM, 1 mM; 3-methylhistidine: 3 mM, 1 mM, 500 μM, 100 μM; N-acetylneuraminate: 100 μM; disodium sebacate: 100 μM; DHB: 100 μM, 50 μM, 20 μM; pantothenate: 100 μM; γ-aminobutyric acid: 100 μM; glycerol: 100 μM; AICAR: 100 μM). Then cells were further incubated in absence of both IL-2 and metabolites for 36 h to induce the apoptosis/dead. For Tcf1^+CD8^+ differentiation study, cells were activated with antigen peptide as above, followed by thoroughly washing, and incubation with metabolites in presence of IL-2 for 3 days.”

CCOC(=O)Oc1ccc(C(=O)OCC)cc1OC(=O)OCC [Prodrug #905, ethyl 3,4-bis((ethoxycarbonyl)oxy)benzoate]
encapsulation in lipid-based dose forms [1]: can be successfully encapsulated

CN(CC(=O)O)C(=N)N [creatine]
efficacy of immune checkpoint blockers (ICBs) [2]: improve the efficacy of immune checkpoint blockers

CSCC[C@H](N)C(=O)O [methionine]
efficacy of immune checkpoint blockers (ICBs) [2]: improve the efficacy of immune checkpoint blockers

COc1cc(/C=C/C(=O)[O-])ccc1O.[Na+] [sodium ferulate]
differentiation of CD44+CD62L+ central memory CD8+ T cells (OT-I CD8+ T cells [3]): significantly increased the differentiation | frequency of Tcf1+CD8+ T cells (OT-I CD8+ T cells [4]): increased the frequency
